Laboratory results as given in ChEMBL document CHEMBL2311283, “Structural modifications to tetrahydropyridine-3-carboxylate esters en route to the discovery of M5-preferring muscarinic receptor orthosteric antagonists” (J Med Chem, 2013).
Values belong to the compound of their own block, whether it stands above or below them.

Key:
[1] = target: T1, Muscarinic acetylcholine receptor M5 (Homo sapiens, UniProt P08912); assay: Displacement of [3H]NMS from human M5 muscarinic receptor expressed in CHO-K1 cells; assay type: cell-based
T1 sequence (P08912 whole entry): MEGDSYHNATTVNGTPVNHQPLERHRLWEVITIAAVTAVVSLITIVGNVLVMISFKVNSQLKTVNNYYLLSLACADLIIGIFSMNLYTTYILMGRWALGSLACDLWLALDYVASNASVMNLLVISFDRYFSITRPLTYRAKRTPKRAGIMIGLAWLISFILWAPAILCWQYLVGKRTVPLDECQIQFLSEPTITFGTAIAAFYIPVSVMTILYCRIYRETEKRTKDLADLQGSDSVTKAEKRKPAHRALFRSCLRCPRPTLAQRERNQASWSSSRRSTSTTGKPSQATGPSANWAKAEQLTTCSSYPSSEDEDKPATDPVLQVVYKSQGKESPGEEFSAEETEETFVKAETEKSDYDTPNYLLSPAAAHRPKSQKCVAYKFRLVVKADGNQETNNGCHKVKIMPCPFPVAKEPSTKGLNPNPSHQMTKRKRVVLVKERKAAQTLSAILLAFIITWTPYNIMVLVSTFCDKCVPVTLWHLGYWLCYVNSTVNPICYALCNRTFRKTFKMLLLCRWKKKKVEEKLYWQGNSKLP

[2] = target: T2, Muscarinic acetylcholine receptor M1 (Homo sapiens, UniProt P11229); assay: biochemical; assay type: cell-based, CHO-K1
T2 sequence (P11229 whole entry): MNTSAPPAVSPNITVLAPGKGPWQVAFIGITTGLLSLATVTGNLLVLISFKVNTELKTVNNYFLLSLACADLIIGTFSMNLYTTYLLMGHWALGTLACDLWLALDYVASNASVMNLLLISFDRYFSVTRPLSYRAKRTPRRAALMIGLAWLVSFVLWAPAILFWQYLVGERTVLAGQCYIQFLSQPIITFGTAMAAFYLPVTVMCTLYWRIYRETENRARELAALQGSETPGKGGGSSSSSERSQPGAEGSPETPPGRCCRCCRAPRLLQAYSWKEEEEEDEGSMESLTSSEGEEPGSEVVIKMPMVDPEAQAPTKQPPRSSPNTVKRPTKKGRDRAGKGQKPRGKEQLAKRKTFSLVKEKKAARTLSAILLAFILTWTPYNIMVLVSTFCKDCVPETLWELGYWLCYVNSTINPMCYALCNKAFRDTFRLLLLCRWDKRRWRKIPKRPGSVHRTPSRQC

[3] = organism: Homo sapiens; assay: Selectivity index, ratio of Ki for human M1 muscarinic receptor to Ki for human M5 muscarinic receptor
[4] = organism: Homo sapiens; assay: Selectivity index, ratio of Ki for human M4 muscarinic receptor to Ki for human M5 muscarinic receptor
[5] = organism: Homo sapiens; assay: Selectivity index, ratio of Ki for human M3 muscarinic receptor to Ki for human M5 muscarinic receptor
[6] = target: T3, Muscarinic acetylcholine receptor M4 (Homo sapiens, UniProt P08173); assay: Displacement of [3H]NMS from human M4 muscarinic receptor expressed in CHO-K1 cells; assay type: cell-based
T3 sequence (P08173 whole entry): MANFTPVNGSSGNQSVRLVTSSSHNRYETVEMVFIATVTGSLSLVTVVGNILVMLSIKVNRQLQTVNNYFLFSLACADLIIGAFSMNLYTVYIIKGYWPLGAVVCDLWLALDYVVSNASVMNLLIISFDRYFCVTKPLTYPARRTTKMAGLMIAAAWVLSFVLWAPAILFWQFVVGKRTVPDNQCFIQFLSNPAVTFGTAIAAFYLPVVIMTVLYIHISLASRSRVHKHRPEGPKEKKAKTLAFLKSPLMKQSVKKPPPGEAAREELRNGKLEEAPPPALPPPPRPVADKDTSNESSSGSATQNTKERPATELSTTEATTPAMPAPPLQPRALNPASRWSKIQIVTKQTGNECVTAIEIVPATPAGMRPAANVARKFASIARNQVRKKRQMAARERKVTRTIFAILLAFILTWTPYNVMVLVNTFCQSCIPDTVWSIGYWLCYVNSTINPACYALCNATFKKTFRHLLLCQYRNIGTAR

[7] = target: Muscarinic acetylcholine receptor M3 (Homo sapiens, UniProt P20309); assay: Displacement of [3H]NMS from human M3 muscarinic receptor expressed in CHO-K1 cells; assay type: cell-based
[8] = target: T4, Muscarinic acetylcholine receptor M2 (Homo sapiens, UniProt P08172); assay: Displacement of [3H]NMS from human M2 muscarinic receptor expressed in CHO-K1 cells; assay type: cell-based
T4 sequence (P08172 whole entry): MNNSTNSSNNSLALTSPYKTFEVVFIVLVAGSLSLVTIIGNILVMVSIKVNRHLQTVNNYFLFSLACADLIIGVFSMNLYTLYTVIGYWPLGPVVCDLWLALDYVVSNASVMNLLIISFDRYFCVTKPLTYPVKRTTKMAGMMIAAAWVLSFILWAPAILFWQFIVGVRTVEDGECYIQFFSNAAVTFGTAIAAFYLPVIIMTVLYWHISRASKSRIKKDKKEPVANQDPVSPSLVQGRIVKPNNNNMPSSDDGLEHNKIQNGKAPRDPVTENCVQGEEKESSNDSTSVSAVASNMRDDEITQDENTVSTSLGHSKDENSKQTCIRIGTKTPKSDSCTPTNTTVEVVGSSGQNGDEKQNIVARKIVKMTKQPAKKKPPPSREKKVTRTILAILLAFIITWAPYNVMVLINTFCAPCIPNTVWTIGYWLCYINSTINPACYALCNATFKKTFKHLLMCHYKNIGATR

Muscarinic acetylcholine receptor M3, sequence (P20309 whole entry): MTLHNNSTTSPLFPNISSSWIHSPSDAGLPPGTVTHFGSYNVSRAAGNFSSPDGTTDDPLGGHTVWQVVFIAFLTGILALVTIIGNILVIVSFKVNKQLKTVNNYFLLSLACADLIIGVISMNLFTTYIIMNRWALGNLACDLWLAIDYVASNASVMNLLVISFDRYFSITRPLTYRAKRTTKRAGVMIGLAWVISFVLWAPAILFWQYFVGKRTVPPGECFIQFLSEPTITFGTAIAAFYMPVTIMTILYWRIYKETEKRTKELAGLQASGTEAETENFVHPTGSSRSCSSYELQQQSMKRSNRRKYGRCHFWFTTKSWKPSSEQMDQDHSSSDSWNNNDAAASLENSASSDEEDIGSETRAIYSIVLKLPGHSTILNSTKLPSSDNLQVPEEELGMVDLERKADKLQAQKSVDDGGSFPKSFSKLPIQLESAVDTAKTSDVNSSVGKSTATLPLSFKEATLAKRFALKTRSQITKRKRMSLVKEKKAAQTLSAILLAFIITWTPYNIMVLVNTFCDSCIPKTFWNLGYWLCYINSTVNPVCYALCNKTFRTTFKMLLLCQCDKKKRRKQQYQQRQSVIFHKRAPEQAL

Compound: CN1CC=C(c2ccccc2C(=O)OCCc2ccc3c(c2)CCO3)CC1
- Ki [1]: > 100 µM
- Ki [2]: > 100 µM

Compound: COc1ccc(CCCCOC(=O)C2=C(c3ccccc3)CCN(C)C2)cc1
- Ratio Ki [3]: 4.7
- Ki [1]: 1.16 µM
- Ki [2]: 5.4 µM

Compound: Cc1cccc(CCOC(=O)C2=C(c3ccccc3)CCN(C)C2)c1
- Ratio Ki [3]: 3.1
- Ki [1]: 0.28 µM
- Ki [2]: 0.88 µM

Compound: CSc1ccc(CCOC(=O)C2=C(c3ccccc3)CCN(C)C2)cc1
- Ratio Ki [3]: 1.8
- Ki [1]: 0.19 µM
- Ki [2]: 0.34 µM

Compound: CCN1CCC(c2ccccc2)=C(C(=O)OCCc2ccc(S(C)(=O)=O)cc2)C1
- Ki [1]: > 100 µM
- Ki [2]: > 100 µM

Compound: COc1ccc(CCOC(=O)C2=C(c3ccccc3OC)CCN(C)C2)cc1OC
- Ki [1]: > 100 µM
- Ki [2]: > 100 µM

Compound: CN1CCC(c2cccc(F)c2)=C(C(=O)OCCc2ccc3c(c2)CCO3)C1
- Ki [1]: > 100 µM
- Ki [2]: > 100 µM

Compound: CCOC(=O)C1=C(c2ccccc2)CCN(CCc2ccccc2)C1
- Ki [1]: > 100 µM
- Ki [2]: > 100 µM

Compound: CN1CCC(c2ccccc2)=C(C(=O)OCc2ccc3c(c2)CCO3)C1
- Ki [1]: > 100 µM
- Ki [2]: > 100 µM

Compound: COc1cccc(C2=C(C(=O)OCCc3ccc(OC)c(OC)c3)CN(C)CC2)c1
- Ki [1]: > 100 µM
- Ki [2]: > 100 µM

Compound: COc1ccc(OCCOC(=O)C2=C(c3ccccc3)CCN(C)C2)cc1
- Ratio Ki [3]: 2
- Ki [1]: 3.07 µM
- Ki [2]: 6.19 µM

Compound: CN1CCC(c2ccccc2)=C(C(=O)OCCc2ccc3c(c2)CCO3)C1
- Ratio Ki [3]: 4.8
- Ki [1]: 0.06 µM
- Ki [2]: 0.29 µM
- Ratio Ki [4]: 32
- Ratio Ki [5]: 47
- Ki [6]: 1.89 µM
- Ki [7]: 2.84 µM
- Ki [8]: 1.17 µM

Compound: CCOC(=O)C1=C(c2ccccc2)CCN(C2CCN(S(=O)(=O)c3ccc(C)cc3)CC2)C1
- Ki [1]: > 100 µM
- Ki [2]: > 100 µM

Compound: COc1ccc(CCOC(=O)C2=C(c3cccc(F)c3)CCN(C)C2)cc1OC
- Ratio Ki [3]: 8.1
- Ki [1]: 3.34 µM
- Ki [2]: 27 µM
- Ratio Ki [4]: > 30
- Ratio Ki [5]: > 30
- Ki [6]: > 100 µM
- Ki [7]: > 100 µM
- Ki [8]: > 100 µM

Compound: CCCN1CCC(c2ccccc2)=C(C(=O)OCCc2ccc(OC)cc2)C1
- Ki [1]: > 100 µM
- Ki [2]: > 100 µM

Compound: COc1ccc(CCOC(=O)C2=C(c3ccccc3F)CCN(C)C2)cc1OC
- Ki [1]: > 100 µM
- Ki [2]: > 100 µM

Compound: CCCCN1CCC(c2ccccc2)=C(C(=O)OCCc2ccc(OC)cc2)C1
- Ki [1]: > 100 µM
- Ki [2]: > 100 µM

Compound: CCN1CCC(c2ccccc2)=C(C(=O)OCc2ccc3c(c2)OCO3)C1
- Ratio Ki [3]: 0.5
- Ki [1]: 0.12 µM
- Ki [2]: 0.06 µM

Compound: CCN1CCC(c2ccccc2)=C(C(=O)OCCCc2ccc(OC)cc2)C1
- Ki [6]: 11.5 µM
- Ki [7]: 4.07 µM
- Ki [8]: 2.03 µM

- Ki [1]: 2.62 µM
- Ki [2]: 6.16 µM
Compound: COc1ccc(CCOC(=O)C2=C(c3ccccc3)CN(C)CC2)cc1OC

Compound: CCN1CCC(c2ccccc2)=C(C(=O)O[C@@H](C)Cc2ccc(OC)cc2)C1
- Ki [1]: > 100 µM
- Ki [2]: > 100 µM

Compound: CCN1CCC(c2ccccc2)=C(C(=O)OCCc2ccc(OC)c(F)c2)C1
- Ratio Ki [3]: 4.8
- Ki [1]: 2.46 µM
- Ki [2]: 11.7 µM

Compound: CN1CCC(c2ccccc2)=C(C(=O)OCCCc2ccc3c(c2)CCO3)C1
- Ratio Ki [3]: 1.5
- Ki [1]: 0.63 µM
- Ki [2]: 0.92 µM

Compound: CCOC(=O)C1=C(c2ccccc2)CCN(C2CCN(C(=O)c3c(C)cccc3C)CC2)C1
- Ki [1]: > 100 µM
- Ki [2]: > 100 µM
